For assay [1] the following is noted: phase II trial, cited from earlier work.
Assay [2] concerns the target T1, recombinant human NK3 receptor (Homo sapiens, UniProt P29371).
T1 construct: expressed in transfected cells; host or cells: HEK293 cells, transient expression; membranes
T1 sequence (P29371 1-465): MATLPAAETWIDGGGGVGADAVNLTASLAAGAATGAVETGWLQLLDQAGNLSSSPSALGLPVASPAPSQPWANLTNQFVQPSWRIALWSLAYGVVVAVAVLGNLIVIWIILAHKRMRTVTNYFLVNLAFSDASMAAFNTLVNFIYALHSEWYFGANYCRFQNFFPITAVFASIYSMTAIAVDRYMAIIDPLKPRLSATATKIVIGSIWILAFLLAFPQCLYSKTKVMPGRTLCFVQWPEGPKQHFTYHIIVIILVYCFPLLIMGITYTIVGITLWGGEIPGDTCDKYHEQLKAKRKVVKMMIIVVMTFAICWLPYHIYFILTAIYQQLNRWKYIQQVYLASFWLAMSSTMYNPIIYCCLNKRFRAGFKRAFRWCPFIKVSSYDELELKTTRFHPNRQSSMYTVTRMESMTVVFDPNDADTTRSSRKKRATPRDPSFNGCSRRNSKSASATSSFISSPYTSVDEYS
Put plainly: [3H]SR142801 competition binding assay. The conditions noted are these: membranes from HEK293 cells transiently expressing recombinant human NK3 receptor; [3H]SR142801 radioligand; Ki by Cheng-Prussoff. The procedure: [^3H]SR142801 Competition Binding Assay
hNK3 receptor binding experiment were performed using [^3H]SR142801 (Catalog No. TRK1035, specific activity: 74.0 Ci/mmol, Amersham, GE Healthcare UK limited, Buckinghamshire, UK) and membrane isolated from HEK293 cells transiently expressing recombinant human NK3 receptor. After thawing, the membrane homogenates were centrifuged at 48,000×g for 10 min at 4° C., the pellets were resuspended in the 50 mM Tris-HCl, 4 mM MnCl2, 1 μM phosphoramidon, 0.1% BSA binding buffer at pH 7.4 to a final assay concentration of 5 μg protein/well. For inhibition experiments, membranes were incubated with [^3H]SR142801 at a concentration equal to KD value of radioligand and 10 concentrations of the inhibitory compound (0.0003-10 μM) (in a total reaction volume of 500 μl) for 75 min at room temperature (RT). At the end of the incubation, membranes were filtered onto unit filter (96-well white microplate with bonded GF/C filter preincubated 1 h in 0.3% PEI+0.3% BSA, Packard BioScience, Meriden, Conn.) with a Filtermate 196 harvester (Packard BioScience) and washed 4 times with ice-cold 50 mM Tris-HCl, pH 7.4 buffer. Nonspecific binding was measured in the presence of 10 μM SB222200 for both radioligands. The radioactivity on the filter was counted (5 min) on a Packard Top-count microplate scintillation counter with quenching correction after addition of 45 μl of microscint 40 (Canberra Packard S. A., Zürich, Switzerland) and shaking for 1 h. Inhibition curves were fitted according to the Hill equation: y=100/(1+(x/IC50)^nH), where nH=slope factor using Excel-fit 4 software (Microsoft). IC50 values were derived from the inhibition curve and the affinity constant (Ki) values were calculated using the Cheng-Prussoff equation Ki=IC50/(1+[L]/KD) where [L] is the concentration of radioligand and KD is its dissociation constant at the receptor, derived from the saturation isotherm. All experiments were performed in duplicate and the mean±standard error (SEM) of the individual Ki values was calculated.

pKi: −log10 of the molar value.

The pKi is the negative decadic logarithm of the Ki, by convention in mol/L.

As for `CC(=O)N(C)C1(c2ccccc2)CCN(CCC[C@]2(c3ccc(Cl)c(Cl)c3)CCCN(C(=O)c3ccccc3)C2)CC1` [SR 142,801, Osanetant], the “activity on positive symptoms of schizophrenia” value in assay [1] (altered behaviour, delusion, hallucinations, extreme emotions, excited motor activity, incoherent speech) is given as “active”. The “activity in the treatment of negative symptoms of schizophrenia” value in assay [1] (depression, anhedonia, social isolation, memory and attention deficits) is “inactive”.

As for `C[C@@H](Oc1ccc(Cl)cc1)[C@@H]1CN(C(=O)N2CCN(S(C)(=O)=O)CC2)C[C@H]1c1ccc(Cl)c(Cl)c1` (mixture of isomers) [Example 36, [(3SR,4RS)-3-[(R)-1-(4-Chloro-phenoxy)-ethyl]-4-(3,4-dichloro-phenyl)-pyrrolidin-1-yl]-(4-methanesulfonyl-piperazin-1-yl)-methanone], the pKi in assay [2] was 7.68.

For `C[C@H](Oc1ccc(C(F)(F)F)cc1)[C@@H]1CN(C(=O)N2CCN(S(C)(=O)=O)CC2)C[C@H]1c1ccc(Cl)c(Cl)c1` (racemic) [Example 17, {(3RS,4SR)-3-(3,4-Dichloro-phenyl)-4-[(SR)-1 (4-trifluoromethyl-phenoxy)-ethyl]-pyrrolidin-1-yl}-(4-methanesulfonyl-piperazin-1-yl)-methanone], in assay [2], the pKi was 7.33.

For the molecule `C[C@@H](Oc1ccc(Cl)cn1)[C@@H]1CN(C(=O)N2CCN(CCN(C)C)CC2)C[C@H]1c1ccc(Cl)c(Cl)c1` (racemic) [Example 56, [(3SR,4RS)-3-[(RS)-1-(5-Chloro-pyridin-2-yloxy)-ethyl]-4-(3,4-dichloro-phenyl)-pyrrolidin-1-yl]-[4-(2-dimethylamino-ethyl)-piperazin-1-yl]-methanone], the pKi in assay [2] is 8.59.

`C[C@@H](Oc1ccc(F)c(Cl)c1)[C@@H]1CN(C(=O)N2CCN(S(C)(=O)=O)CC2)C[C@H]1c1ccc(Cl)c(Cl)c1` (racemic) [Example 41, [(3SR,4RS)-3-[(RS)-1-(3-Chloro-4-fluoro-phenoxy)-ethyl]-4-(3,4-dichloro-phenyl)-pyrrolidin-1-yl]-(4-methanesulfonyl-piperazin-1-yl)-methanone]: the pKi in assay [2] is 7.31.

For `CC(=O)N1CCN(CC(=O)N2C[C@@H]([C@@H](C)Oc3ccc(C(F)(F)F)cc3)[C@H](c3ccc(Cl)c(Cl)c3)C2)CC1` (racemic) [Example 24, 2-(4-Acetyl-piperazin-1-yl)-1-{(3RS,4SR)-3-(3,4-dichloro-phenyl)-4-[(RS)-1-(4-trifluoromethyl-phenoxy)-ethyl]-pyrrolidin-1-yl}-ethanone], the pKi in assay [2] is 7.23.

As for `C[C@@H](Oc1ccc(Cl)cn1)[C@@H]1CN(C(=O)CN2CC3CC2CO3)C[C@H]1c1ccc(Cl)c(Cl)c1` (stereo partly drawn) [Example 68, 1-[(3S,4R)-3-[(R)-1-(5-Chloro-pyridin-2-yloxy)-ethyl]-4-(3,4-dichloro-phenyl)-pyrrolidin-1-yl]-2-(2-oxa-5-aza-bicyclo[2.2.1]hept-5-yl)-ethanone], in assay [2], the pKi is 7.57.

Take `C[C@@H](Oc1ccc(F)cc1)[C@@H]1CN(C(=O)N2CCN(S(C)(=O)=O)CC2)C[C@H]1c1ccc(Cl)c(Cl)c1` (racemic) [Example 34, {(3RS,4SR)-3-(3,4-Dichloro-phenyl)-4-[(RS)-1-(4-fluoro-phenoxy)-ethyl]-pyrrolidin-1-yl}-(4-methanesulfonyl-piperazin-1-yl)-methanone]: the pKi in assay [2] was 7.40.

With `Cc1ccc(O[C@H](C)[C@@H]2CN(C(=O)N3CCN(S(C)(=O)=O)CC3)C[C@H]2c2ccc(Cl)c(Cl)c2)cc1` (racemic) [Example 31, [(3RS,4SR)-3-(3,4-Dichloro-phenyl)-4-((RS)-1-p-tolyloxy-ethyl)-pyrrolidin-1-yl]-(4-methanesulfonyl-piperazin-1-yl)-methanone], the pKi in assay [2] is 7.23.

As to `CS(=O)(=O)N1CCN(C(=O)N2C[C@@H](COc3ccc(Cl)cn3)[C@H](c3ccc(Cl)c(Cl)c3)C2)CC1` (racemic) [Example 63], the pKi in assay [2] is 7.92.

As for `C[C@H](Oc1ccc(C#N)cn1)[C@H]1CN(C(=O)N2CCC(C#N)CC2)C[C@@H]1c1ccc(Cl)c(Cl)c1` (racemic) [Example 71], the pKi in assay [2] was 8.06.

With `C[C@@H](Oc1ccc(Cl)cn1)[C@@H]1CN(C(=O)N2CCN3C(=O)CCC3C2)C[C@H]1c1ccc(Cl)c(Cl)c1` (mixture of isomers) [Example 62, 2-[(3SR,4RS)-3-[(RS)-1-(5-Chloro-pyridin-2-yloxy)-ethyl]-4-(3,4-dichloro-phenyl)-pyrrolidine-1-carbonyl]-hexahydro-pyrrolo[1,2-a]pyrazin-6-one], the pKi in assay [2] was 7.62.

As for `C[C@@H](Oc1ccc(C(F)(F)F)cc1)[C@@H]1CN(C(=O)N2CCC(N(C)S(C)(=O)=O)CC2)C[C@H]1c1ccc(Cl)c(Cl)c1` (racemic) [Example 18, N-(1-{(3RS,4SR)-3-(3,4-Dichloro-phenyl)-4-[(RS)-1-(4-trifluoromethyl-phenoxy)-ethyl]-pyrrolidine-1-carbonyl}-piperidin-4-yl)-N-methyl-methanesulfonamide], the pKi in assay [2] was 7.11.

Regarding `CC(=O)N1CCN(CC(=O)N2C[C@@H]([C@@H](C)Oc3ccc(Cl)cc3)[C@H](c3ccc(Cl)c(Cl)c3)C2)CC1` (racemic) [Example 66, 2-(4-Acetyl-piperazin-1-yl)-1-[(3SR,4RS)-3-[(RS)-1-(4-chloro-phenoxy)-ethyl]-4-(3,4-dichloro-phenyl)-pyrrolidin-1-yl]-ethanone], in assay [2], the pKi was 7.96.

As for `C[C@@H](Oc1ccc(C(F)(F)F)cc1)[C@@H]1CN(C(=O)CN2CCC(N(C)S(C)(=O)=O)CC2)C[C@H]1c1ccc(Cl)c(Cl)c1` (racemic) [Example 20, N-[1-(2-{(3RS,4SR)-3-(3,4-Dichloro-phenyl)-4-[(RS)-1-(4-trifluoromethyl-phenoxy)-ethyl]-pyrrolidin-1-yl}-2-oxo-ethyl)-piperidin-4-yl]-N-methyl-methanesulfonamide], the pKi in assay [2] was 7.23.

For `C[C@@H](Oc1ccc(Cl)cn1)[C@@H]1CN(C(=O)CCCCN2CCOCC2)C[C@H]1c1ccc(Cl)c(Cl)c1` (racemic) [Example 55, 1-[(3SR,4RS)-3-[(RS)-1-(5-Chloro-pyridin-2-yloxy)-ethyl]-4-(3,4-dichloro-phenyl)-pyrrolidin-1-yl]-5-morpholin-4-yl-pentan-1-one], the pKi in assay [2] was 7.70.

In the case of `C[C@@H](Oc1ncc(F)cn1)[C@@H]1CN(C(=O)N2CCN(S(C)(=O)=O)CC2)C[C@H]1c1ccc(Cl)c(Cl)c1` (racemic) [Example 51, {(3RS,4SR)-3-(3,4-Dichloro-phenyl)-4-[(RS)-1-(5-fluoro-pyrimidin-2-yloxy)-ethyl]-pyrrolidin-1-yl}-(4-methanesulfonyl-piperazin-1-yl)-methanone], the pKi in assay [2] was 7.63.

Regarding `C[C@H](Oc1ccc(F)cn1)[C@@H]1CN(C(=O)N2CCN(S(C)(=O)=O)CC2)C[C@H]1c1ccc(Cl)c(Cl)c1` (racemic) [Example 57, {(3RS,4SR)-3-(3,4-Dichloro-phenyl)-4-[(SR)-1-(5-fluoro-pyridin-2-yloxy)-ethyl]-pyrrolidin-1-yl}-(4-methanesulfonyl-piperazin-1-yl)-methanone], the pKi in assay [2] is 7.19.

For `C[C@@H](Oc1ccc(C(F)(F)F)cc1)[C@@H]1CN(C(=O)N2CCN(CCN(C)C)CC2)C[C@H]1c1ccc(Cl)c(Cl)c1` (racemic) [Example 52], in assay [2], the pKi was 7.37.

As for `C[C@H](Oc1ccc(C#N)cn1)[C@H]1CN(C(=O)CN2CCC(C#N)CC2)C[C@@H]1c1ccc(Cl)c(Cl)c1` (racemic) [Example 70, 6-{(SR)-1-[(3RS,4SR)-1-[2-(4-Cyano-piperidin-1-yl)-acetyl]-4-(3,4-dichloro-phenyl)-pyrrolidin-3-yl]-ethoxy}-nicotinonitrile], the pKi in assay [2] was 7.07.

The values above are taken from patent publication US7812021B2, “Pyrrolidine aryl-ether as NK3 receptor antagonists” (Hoffmann-La Roche Inc., priority 2007, dated 2010).
